# From US20040147006A1, “Peptides that bind to DNA and inhibit DNA replication, and methods of use” (priority 2001, published 2004)
# “Also recorded” adds a separate entry of the source. Read-outs that look alike come from different tables or passages of the source.
# Columns and labels:
# [1] = target: T1, T-ag oligomerization on 64-bp oligonucleotide containing the SV40 core origin (Simian virus 40, UniProt P03070); assay type: biochemical; conditions: for Effect on T-ag oligomerization: peptide final concentration 0.5 mM
# T1 construct: made in house
# T1 sequence (P03070 whole entry): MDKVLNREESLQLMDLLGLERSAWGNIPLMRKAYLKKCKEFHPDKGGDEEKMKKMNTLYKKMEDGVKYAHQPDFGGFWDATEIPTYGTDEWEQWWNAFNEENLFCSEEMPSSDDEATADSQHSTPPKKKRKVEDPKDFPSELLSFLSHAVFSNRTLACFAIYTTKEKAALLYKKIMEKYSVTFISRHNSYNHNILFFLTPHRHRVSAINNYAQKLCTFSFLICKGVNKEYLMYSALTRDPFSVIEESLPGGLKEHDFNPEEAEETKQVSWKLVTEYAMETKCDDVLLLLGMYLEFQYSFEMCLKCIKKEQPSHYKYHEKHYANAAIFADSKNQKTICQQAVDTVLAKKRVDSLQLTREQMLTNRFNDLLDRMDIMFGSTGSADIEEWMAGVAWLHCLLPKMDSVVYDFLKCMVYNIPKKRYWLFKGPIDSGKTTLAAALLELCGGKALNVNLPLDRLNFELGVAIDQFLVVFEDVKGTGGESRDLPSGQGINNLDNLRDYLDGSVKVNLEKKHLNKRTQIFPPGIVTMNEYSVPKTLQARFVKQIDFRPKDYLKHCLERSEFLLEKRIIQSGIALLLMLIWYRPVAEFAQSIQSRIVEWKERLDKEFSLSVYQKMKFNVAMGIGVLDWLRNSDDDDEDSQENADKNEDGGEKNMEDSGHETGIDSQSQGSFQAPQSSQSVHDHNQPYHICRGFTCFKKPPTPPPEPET
# Protocol: (§1) Electrophoretic mobility shift assays (EMSA). Double stranded oligonucleotides, ^32P labeled at 5′ termini, were prepared using standard procedures (Sambrook, J., et al., 1989, Cold Spring Harbor Laboratory, Cold Spring Harbor, N.Y.; Sreekumar, K. A., et al., 2000, p. 49-67; In, L. Raptis (ed.), Methods in Molecular Biology; SV40 Protocols; Humana Press; Totowa, N.J.). EMSA rections were conducted using conditions for SV40 in vitro replication (Wobbe, C. R., et al., 1985, Proc. Natl. Acad. Sci. USA 82:5710-571 4). The reactions (20 μl) contained 7 mM MgCl2, 0.5 mM DTT, 4 mM AMP-PNP, 40 mM creatine phosphate (pH 7.6), 0.48 μg of creatine phosphate kinase, 5 μg of bovine serum albumin, 0.8 μg of Hae III-digested pBR322 ([…]; used as a nonspecific competitor), about 25 fmol of double stranded oligonucleotide, T-ag and the indicated amounts of peptide. After a 20-min incubation at 37° C., glutaraldehyde (0.1 % final concentration) was added and the reaction products were further incubated for 5 min. The reactions were stopped by the addition of 5 μl of 6× loading dye II (15% Ficoll, 0.25% bromophenol blue, and 0.25% xylene cyanol; Sambrook, J., et al., 1989, Cold Spring Harbor Laboratory, Cold Spring Harbor, N.Y.) to the reaction mixtures. Samples containing T-ag were applied to 3.5 to 12% gradient polyacrylamide gels and electrophoresed in 0.5% Tris-borate-EDTA (TBE) pH 8.4 for about 1.5 h (10 watts).
# [2] = test system: double stranded oligonucleotide containing the SV40 core origin (SEQ ID NO: 24); assay: Nitrocellulose filter binding of peptide to DNA; conditions: for Binding to DNA in filter binding assay, mutant set: 20 nmoles peptide (1 mM final concentration); for Binding to DNA in filter binding assay, E1 peptides: peptide 0.25 mM and 0.5 mM
# Protocol: Nitrocellulose filter binding reactions. Assay for the ability of NLS based peptides to bind to DNA were performed using published methods (Sreekumar, K. A., et al., 2000, In, L. Raptis (ed.), Methods in Molecular Biology: SV40 Protocols; Humana Press, Totowa, N.J. p. 49-67). Reactions (20 μl) contained 7 mM MgCl2, 0.5 mM DTT, 4 mM AMP-PNP, 40 mM creatine phosphate (di-Tris salt pH7.7), 0.48 μg of creatine phosphokinase, 0.2 mg of bovine serum albumin per ml, 0.8 μg of Hae III-digested pBR322 DNA, about 25 fmol of a given oligonucleotide (about 10^6 cpm/pmol) and the indicated peptide. After incubation for 20 min at 37° C., the mixtures were filtered under suction through alkali-treated nitrocellulose filters (Millipore type HAWP; pore size, 0.4 μm; stored in 100 mM Tris-HCl, pH7.5). The filters were then washed with 5 ml of 100 mM Tris-HCl, pH 7.5, and were dried and counted in a Beckman LS 3801 scintillation counter.
# [3] = test system: SV40 DNA replication in HeLa human cell crude extracts; assay: SV40 in vitro replication reaction; assay type: biochemical; conditions: 30 μl reactions, with T-ag
# Protocol: DNA replication reactions. SV40 in vitro replication reactions were conducted as described by Wobbe et al 1985, Proc. Natl. Acad. Sci. USA 82:5710-5714 (see also, Bullock, P. A., et al., 1998, p. 223-243. In S. Cotterill (ed.), Eukaryotic DNA Replication; A practical Approach, Oxford University Press, Oxford). Reaction mixtures (30 μl) contained 7 mM MgCl2, 0.5 mM DTT, 4 mM ATP, 40 mM creatine phosphate (di-Tris salt pH7.7), 1.4 μg of creatine phosphokinase, 12.5 μg/ml pSV01ΔEP, dATP, dGTP, and dTTP (100 μM each), CTP, GTP, and UTP (200 μM each), [α-^32p] dCTP (20 μM, about 5 cpm/fmol) and the indicated peptides.
# [4] = test system: 64 bp SV40 core origin (SEQ ID NO: 24); assay: Peptide band shift (EMSA without T-ag), core origin; assay type: binding; conditions: SV40 core origin
# Protocol: as §1
# […] Moreover, the samples were loaded on 8% polyacryamide gels and electrophoresed in 0.5% TBE pH 8.4 for about 3h (about 200 volts). The gels were dried on Whatman 3 MM paper, subjected to autoradiography and quantitated using a Molecular Dynamics PhosphorImager (Sunnyvale, Calif.).
# T-ag helicase ATPase = target: T2, T-ag helicase ATPase (Simian virus 40, UniProt P03070); assay type: biochemical, SV40; conditions: duplicate lanes, FIG. 13
# T2 construct: made in house
# T2 sequence (P03070 whole entry): as above
# Protocol: A method for measuring ATP hydrolysis involves incubating T-ag with a ^32P-labeled ATP, cross-linking with gluteraldehyde, removing unincorporated nucleotides by passing the reaction products over a Bio-Spin P-30 column, drying the eluate in a Speedvac, resuspending the samples in formic acid, and performing thin layer chromatography on PEI (polyethyleneimine) plates. Using autoradiography, the amount of ATP, ADP and AMP associated with T-ag was determined.
# [5] = test system: 64 bp enhancer control (SEQ ID NO: 29); assay: Peptide band shift (EMSA without T-ag), control oligonucleotide; assay type: binding; conditions: 64 bp enhancer control oligonucleotide; listed as peptide T124A13
# Protocol: as §1
# Peptide based band shift reactions were identical to those described above except that T-ag was omitted from the reactions and the final glutaraldehyde concentration was reduced to 0.05 %. Moreover, the samples were loaded on 8% polyacryamide gels and electrophoresed in 0.5% TBE pH 8.4 for about 3h (about 200 volts). The gels were dried on Whatman 3 MM paper, subjected to autoradiography and quantitated using a Molecular Dynamics PhosphorImager (Sunnyvale, Calif.).
# [6] = T-ag 6 pmol, 64-bp SV40 core origin, peptide concentration not given
# [7] = peptide final concentration 1 mM (20 nmoles), T-ag 6 pmol
# [8] = high peptide concentrations (1 mM and 2 mM)
# [9] = peptide 0.5 mM to 2 mM, replication conditions, pBR322 competitor
# [10] = 13-mer set at 1 mM final concentration (20 nmoles)
substance,measurement,setting,value
ADSQHSTAPKKKR [P125A13],"Effect on T-ag oligomerization, mutant set (FIG. 11 Panel B)",[1]; [6],Full inhibition of oligomerization
same,"Binding to DNA in filter binding assay, mutant set",[2],bind to DNA as well as does wild type peptide T-213
"ATADSQHSTPPKKKRKV (Virus; Host Macaca mulatta; DOMAIN (1)..(17) Domain SV40 T-Antigen (116)...(132)) [peptide 217, 17-mer of SV40 T-ag with complete NLS]",Effect on T-ag oligomerization,[1]; T-ag 6 pmol,inhibited T-ag oligomerization
same,Effect on T-ag oligomerization (hexamer and double hexamer formation),[1]; [7],completely blocked
same,Binding to DNA in filter binding assay,[2]; [8],saturated
same,Binding to DNA in filter binding assay,[2]; peptide 0.5 mM,significant binding was observed
same,Binding to DNA in filter binding assay,[2]; [9],relatively high affinity for binding to DNA
same,Binding to DNA in filter binding assay,"[2]; peptide 0.5 mM to 2 mM, replication conditions, pBR322 competitor, listed as peptide T-217",higher affinity for this DNA than does peptide T-213
same,Inhibition of SV40 in vitro DNA replication,[3],not an efficient inhibitor of DNA replication; also recorded: unable to inhibit replication
SQHSTPPKK [peptide 29],Peptide/DNA complex formation in peptide band shift,[4]; peptide 2 mM,binding was not detected
KKRRKRVKLVGPSTSEQSNASESSG [SEQ ID NO: 30],Inhibition of SV40 in vitro DNA replication,[3],retains ability to inhibit replication of DNA
same,Inhibition of SV40 in vitro DNA replication,[3]; listed as SEQ ID NO:30,good inhibitor of DNA replication
PPKKKRpTADSQHS [peptide 313],Effect on T-ag oligomerization (hexamer and double hexamer formation),[1],little or no effect on T-ag oligomerization
PPKKKRKVpTATADSQHS [peptide 317],Effect on T-ag oligomerization (hexamer and double hexamer formation),[1],no inhibition of T-ag assembly
ADSQHSpTPPKKKR [peptide 113],Effect on T-ag oligomerization (hexamer and double hexamer formation),[1],little or no effect on T-ag oligomerization
same,"Effect on T-ag oligomerization, mutant set (FIG. 11 Panel B)",[1],did not; also recorded: no inhibition of oligomerization of T-ag
same,Binding to DNA in filter binding assay,[2]; [9],did not bind DNA at significant levels
same,Binding to DNA in filter binding assay,"[2]; peptide 0.5 mM to 2 mM, replication conditions, pBR322 competitor, listed as peptide T-113",did not bind to the oligonucleotide at significant levels
same,Effect on ATPase of T-ag,T-ag helicase ATPase,did not modulate the ATPase of T-ag activity
ADSQHSAPPKKKR [T124A13],"Effect on T-ag oligomerization, mutant set (FIG. 11 Panel B)",[1]; [6],does not destroy the inhibitory property of the peptide
same,"Binding to DNA in filter binding assay, mutant set",[2],bind to DNA as well as does wild type peptide T-213
same,Peptide/DNA complex formation in peptide band shift,[4]; [10],does not affect DNA binding
same,Peptide/DNA complex formation in peptide band shift,"[4]; 13-mer set at 1 mM final concentration (20 nmoles), listed as peptide T124A13",bound to DNA and formed a complex; also recorded: Mobility shifts are seen
same,Peptide/DNA complex formation in peptide band shift,[5],does not require a large degree of sequence specificity; also recorded: requires little demonstrable nucleotide sequence specificity; also recorded: Mobility shifts are seen
RKVLGSSQNSSGSEASEpTPVKRRK [peptide E1-P125],"Binding to DNA in filter binding assay, E1 peptides",[2],binds to DNA at levels similar to the control peptide E1-425
same,Effect on ATPase of T-ag,T-ag helicase ATPase,had no effect
SEASETPVKRRKGKRKVLGSSQNSS [control BP-E125],"Effect on T-ag assembly, E1 Cdk/NLS peptides","[1]; 5 nmol peptide, final concentration 0.25 mM, T-ag 6 pmol",found not to block T-ag assembly
same,"Binding to DNA in filter binding assay, E1 peptides",[2],bound to DNA at much reduced levels
same,Inhibition of SV40 in vitro DNA replication,[3],not an efficient inhibitor of replication
ATADSQHSpTPPKKKRKV [peptide 117],Effect on T-ag oligomerization (hexamer and double hexamer formation),[1],no inhibition of T-ag assembly
same,Binding to DNA in filter binding assay,[2]; [8],observed to bind to DNA
same,Binding to DNA in filter binding assay,"[2]; high peptide concentrations (1 mM and 2 mM), listed as peptide T-117",observed to bind to DNA at higher peptide concentrations
"PPKKKRKVTATADSQHS [peptide 417, rearranged control 17-mer]",Effect on T-ag oligomerization,[1]; T-ag 6 pmol,did not inhibit
same,Effect on T-ag oligomerization,"[1]; T-ag 6 pmol, listed as peptide T-417",did not
same,Binding to DNA in filter binding assay,[2]; [8],observed to bind to DNA
same,Binding to DNA in filter binding assay,"[2]; high peptide concentrations (1 mM and 2 mM), listed as peptide T-417",observed to bind to DNA at higher peptide concentrations
"PPKKKRTADSQHS [peptide 413, rearranged control 13-mer]",Effect on T-ag oligomerization (hexamer and double hexamer formation),[1]; [7],little or no effect on T-ag oligomerization
same,Binding to DNA in filter binding assay,[2]; [8],Low levels of binding
same,Binding to DNA in filter binding assay,"[2]; high peptide concentrations (1 mM and 2 mM), listed as peptide T-413",low levels of binding
same,Peptide/DNA complex formation in peptide band shift,[4]; [10],did not
ADSQHSTPAKKKR [P126A13],"Effect on T-ag oligomerization, mutant set (FIG. 11 Panel B)",[1]; [6],Full inhibition of oligomerization
same,"Binding to DNA in filter binding assay, mutant set",[2],bind to DNA as well as does wild type peptide T-213
